pIC50: −log10 of the molar value.
System: 138582-337-R-J1-PDC complex spheroid viability
Assay: Anticancer human tumor 138582-337-R-J1-PDC patient-derived Merkel cell tumor cell line growth inhibition
Conditions: for pIC50: curve of first compound; for viability, T/C: stronger effect = lower value
Source text: Multicellular complex tumor spheroid response to LSD1 Inhibitor Iadademstat in combination with a variety of drugs and investigational agents in selected tumor cell lines
The current study was undertaken to assess response to LSD1 inhibitors in combination with standard-of-care drugs and investigational agents in solid tumor complex spheroid models as well as in the K-562 leukemia. Complex spheroids include a stromal component modeled by human endothelial cells (HUVEC) and fibroblasts modeled by human mesenchymal stem cells (MSCs). The concentration ranges selected for each drug and investigational agent were based upon clinically achievable concentrations if the clinical Cmax of the agent was known.
Compounds. The drugs and investigational agents used in this study are listed on Table 1. All of the agents used, including staurosporine (NSC755774) and gemcitabine (NSC613327), were obtained from the Developmental Therapeutics Program, NCI. FDA-approved anticancer drugs are available from the NCI at http://dtp.nci.nih.gov/branches/dscb/oncology_drugset_explanation.html. Drugs and investigational agents were >95% pure by proton nuclear magnetic resonance (NMR) and liquid chromatography/mass spectrometry (LC/MS). Stock solutions were prepared at 400x in DMSO, stored at -70 degrees C, and diluted in fresh medium prior to their use. The final concentration of DMSO in cell culture wells never exceeded 0.25% (v/v). The FDA-approved anticancer drug set is available from the Developmental Therapeutics Program at https://dtp.cancer.gov/organization/dscb/obtaining/available_plates.htm. All drugs and investigational agents were tested over a range starting from a high concentration at or near the clinical Cmax and decreasing in half-log increments. If the clinical Cmax for an agent had not been determined, the highest concentration tested was 10 microM.
Cell Lines. The patient-derived cancer cell (PDC) lines: 292921-168-R-J2-PDC, K24384-001-R-PDC, and 521955-158-R2-J5-PDC pancreatic carcinomas, 556581-035-R-J1 ovarian carcinoma, 324938-238-R-J1-PDC, 855422-203-R-J1-PDC and 883617-216-R-J1-PDC urothelial bladder carcinomas, 743489-274-T-PDC renal cell carcinoma, 138582-R-J1 Merkel cell tumor, K60290-347-R-J1 and K57222-313-R-J1-PDC glioblastomas, 653999-131-R-J2-PDC, LG0703-F948-PDC, and 349418-098-R-PDC non-small cell lung carcinomas, 885512-296-R-J2-PDC, 171881-019-R-J1-PDC breast carcinomas and 186277-243-T-J2-PDC and 233499-124-R-J2-PDC colon carcinomas were obtained from the NCI Patient-Derived Models Repository (PDMR, https://pdmr.cancer.gov). The established cell lines NCI/ADR-RES (RRID:CVCL_14520 and OVCAR-5 (RRID:CVCL_1628) ovarian carcinomas, 786-O (RRID:CVCL_1051) and A498 (RRID:CVCL_A498) renal cell carcinoma, NCI-H211 (ATCC, cat. CRL-5824; RRID:CVCL_1529), NCI-H196 (ATCC, cat. CRL-5823, RRID:CVCL_1509), SW 1271 (ATCC, cat. CRL-2177, RRID:CVCL_1716) and NCI-H1876 (ATCC, cat. CRL-5902, RRID:CVCL_1503) small cell lung carcinomas, MDA-MB-231 (RRID:CVCL_0062) and MDA-MB-468 (RRID:CVCL_0419)breast carcinomas (10-12). Pooled donor human umbilical vein endothelial cells (HUVEC, Lonza, cat. CC-2519) and human mesenchymal stem cells (hMSC, Lonza, cat. PT-2501) were purchased from Lonza (Walkersville, MD).
Cell Culture. All cells were maintained in an incubator at 37 degrees C and 5% CO2 with 95% humidity. The PDC lines were cultured according to standard operating procedures established by the NCI PDMR (https://pdmr.cancer.gov). Briefly all PDCs were thawed and cultured in Matrigel-coated flasks prepared with a working solution of 1X Ham's F-12 nutrient mix, without supplementation (Invitrogen, Waltham, MA, cat. 11765054), 100 U/mL penicillin-streptomycin (Invitrogen, cat. 15140122), and 2.5% Matrigel (Corning Inc., Corning, NY, cat. 354248) for the first three passages. […]

[1] = second compound 0.1 µM, first compound 0.000949 µM
[2] = second compound 0.1 µM, first compound 0.003 µM
[3] = second compound 0.1 µM, first compound 0.00949 µM
[4] = second compound 0.1 µM, first compound 0.03 µM
[5] = second compound 0.1 µM, first compound 0.0949 µM
[6] = second compound 0.1 µM, first compound 0.3 µM
[7] = second compound 0.316 µM, first compound 0.000949 µM
[8] = second compound 0.316 µM, first compound 0.003 µM
[9] = second compound 0.316 µM, first compound 0.00949 µM
[10] = second compound 0.316 µM, first compound 0.03 µM
[11] = second compound 0.316 µM, first compound 0.0949 µM
[12] = second compound 0.316 µM, first compound 0.3 µM
[13] = second compound 1 µM, first compound 0.000949 µM
[14] = second compound 1 µM, first compound 0.003 µM
[15] = second compound 1 µM, first compound 0.00949 µM
[16] = second compound 1 µM, first compound 0.03 µM
[17] = second compound 1 µM, first compound 0.0949 µM
[18] = second compound 1 µM, first compound 0.3 µM
[19] = second compound 3.16 µM, first compound 0.000949 µM
[20] = second compound 3.16 µM, first compound 0.003 µM
[21] = second compound 3.16 µM, first compound 0.00949 µM
[22] = second compound 3.16 µM, first compound 0.03 µM
[23] = second compound 3.16 µM, first compound 0.0949 µM
[24] = second compound 3.16 µM, first compound 0.3 µM
[25] = second compound 10 µM, first compound 0.000949 µM
[26] = second compound 10 µM, first compound 0.003 µM
[27] = second compound 10 µM, first compound 0.00949 µM
[28] = second compound 10 µM, first compound 0.03 µM
[29] = second compound 10 µM, first compound 0.0949 µM
[30] = second compound 10 µM, first compound 0.3 µM
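Note: spheroids exposed to agents for 7 days.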
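Throughout, for viability, T/C: 100% = DMSO vehicle control viability.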

`CCc1c2c(nc3ccc(O)cc13)-c1cc3c(c(=O)n1C2)COC(=O)[C@]3(O)CC` + NC1CC1c1ccc(-c2cccc(O)c2)cc1 was tested, and the pIC50 (second compound 0.1 µM) was 8.34, the pIC50 (second compound 0.316 µM) was 8.57 and the pIC50 (second compound 1 µM) was 8.48. The pIC50 (second compound 3.16 µM) was 8.40, the pIC50 (second compound 10 µM) was 8.25 and the viability, T/C [1] was 64.6%. The viability, T/C [2] was 65.2%, the viability, T/C [3] was 23.9% and the viability, T/C [4] was 0.24%. For the same compound, the viability, T/C [5] was 0.19%, the viability, T/C [6] was 0.2% and the viability, T/C [7] was 73.8%. The viability, T/C [8] was 45.9%, the viability, T/C [9] was 23.5% and the viability, T/C [10] was 0.59%. It also gave a viability, T/C [11] of 0.13%, a viability, T/C [12] of 0.24% and a viability, T/C [13] of 57.1%. It also gave a viability, T/C [14] of 51.3%, a viability, T/C [15] of 23.9% and a viability, T/C [16] of 0.3%. The viability, T/C [17] was 0.16%, the viability, T/C [18] was 0.21% and the viability, T/C [19] was 78%. It also gave a viability, T/C [20] of 57.7%, a viability, T/C [21] of 25.3% and a viability, T/C [22] of 0.56%. It also gave a viability, T/C [23] of 0.14%, a viability, T/C [24] of 0.23% and a viability, T/C [25] of 82.4%. It also gave a viability, T/C [26] of 68%, a viability, T/C [27] of 34.7% and a viability, T/C [28] of 0.44%. It also gave a viability, T/C [29] of 0.21% and a viability, T/C [30] of 0.33%.

Work on `Nc1ccn(C2OC(CO)C(O)C2(F)F)c(=O)n1` (stereo not given) + NC1CC1c1ccc(-c2cccc(O)c2)cc1 yielded a pIC50 (second compound 0.1 µM) of under 6.52, a pIC50 (second compound 0.316 µM) of under 6.52 and a pIC50 (second compound 1 µM) of under 6.52. The pIC50 (second compound 3.16 µM) was under 6.52, the pIC50 (second compound 10 µM) was under 6.52 and the viability, T/C [1] was 75.3%. The viability, T/C [2] was 69.9%, the viability, T/C [3] was 86.8% and the viability, T/C [4] was 59%. For the same compound, the viability, T/C [5] was 56%, the viability, T/C [6] was 58.3% and the viability, T/C [7] was 62.5%. For the same compound, the viability, T/C [8] was 83.7%, the viability, T/C [9] was 73.7% and the viability, T/C [10] was 64.6%. For the same compound, the viability, T/C [11] was 64.6%, the viability, T/C [12] was 67.9% and the viability, T/C [13] was 77.1%. It also gave a viability, T/C [14] of 79.7%, a viability, T/C [15] of 79.5% and a viability, T/C [16] of 72.8%. The viability, T/C [17] was 66.7%, the viability, T/C [18] was 57.6% and the viability, T/C [19] was 74.4%. It also gave a viability, T/C [20] of 75.7%, a viability, T/C [21] of 83.7% and a viability, T/C [22] of 74.1%. The viability, T/C [23] was 67.6%, the viability, T/C [24] was 85% and the viability, T/C [25] was 93.5%. The viability, T/C [26] was 79%, the viability, T/C [27] was 99.7% and the viability, T/C [28] was 73.5%. It also gave a viability, T/C [29] of 70.3% and a viability, T/C [30] of 86.8%.

`O=C(c1cc(Cc2n[nH]c(=O)c3ccccc23)ccc1F)N1CCN(C(=O)C2CC2)CC1` + NC1CC1c1ccc(-c2cccc(O)c2)cc1 showed a pIC50 (second compound 0.1 µM) of 5.04, a pIC50 (second compound 0.316 µM) of 5.29 and a pIC50 (second compound 1 µM) of under 5.00. The pIC50 (second compound 3.16 µM) was under 5.00, the pIC50 (second compound 10 µM) was under 5.00 and the viability, T/C (second compound 0.1 µM, first compound 0.0316 µM) was 72%. The viability, T/C (second compound 0.1 µM, first compound 0.1 µM) was 74.9%, the viability, T/C (second compound 0.1 µM, first compound 0.316 µM) was 68.4% and the viability, T/C (second compound 0.1 µM, first compound 1 µM) was 68.5%. It also gave a viability, T/C (second compound 0.1 µM, first compound 3.16 µM) of 58.6%, a viability, T/C (second compound 0.1 µM, first compound 10 µM) of 49.5% and a viability, T/C (second compound 0.316 µM, first compound 0.0316 µM) of 68.6%. The viability, T/C (second compound 0.316 µM, first compound 0.1 µM) was 73.7%, the viability, T/C (second compound 0.316 µM, first compound 0.316 µM) was 66.2% and the viability, T/C (second compound 0.316 µM, first compound 1 µM) was 57.6%. The viability, T/C (second compound 0.316 µM, first compound 3.16 µM) was 53.6%, the viability, T/C (second compound 0.316 µM, first compound 10 µM) was 45.7% and the viability, T/C (second compound 1 µM, first compound 0.0316 µM) was 76.5%. It also gave a viability, T/C (second compound 1 µM, first compound 0.1 µM) of 77.3%, a viability, T/C (second compound 1 µM, first compound 0.316 µM) of 70.9% and a viability, T/C (second compound 1 µM, first compound 1 µM) of 64.8%. The viability, T/C (second compound 1 µM, first compound 3.16 µM) was 62.4%, the viability, T/C (second compound 1 µM, first compound 10 µM) was 57.4% and the viability, T/C (second compound 3.16 µM, first compound 0.0316 µM) was 78.8%. For the same compound, the viability, T/C (second compound 3.16 µM, first compound 0.1 µM) was 79.8%, the viability, T/C (second compound 3.16 µM, first compound 0.316 µM) was 82.4% and the viability, T/C (second compound 3.16 µM, first compound 1 µM) was 70.7%. For the same compound, the viability, T/C (second compound 3.16 µM, first compound 3.16 µM) was 80%, the viability, T/C (second compound 3.16 µM, first compound 10 µM) was 60.6% and the viability, T/C (second compound 10 µM, first compound 0.0316 µM) was 81.5%. For the same compound, the viability, T/C (second compound 10 µM, first compound 0.1 µM) was 81.1%, the viability, T/C (second compound 10 µM, first compound 0.316 µM) was 80.3% and the viability, T/C (second compound 10 µM, first compound 1 µM) was 93.3%. It also gave a viability, T/C (second compound 10 µM, first compound 3.16 µM) of 71.3% and a viability, T/C (second compound 10 µM, first compound 10 µM) of 87.1%.

Source: PubChem BioAssay AID1918931 (Molecular Pharmacology Branch, DTP, NCI, 2023)
